The text below walks through data of patent US20030064989A1, “Inhibitors of cell proliferation, angiogenesis, fertility, and muscle contraction” (priority 2001, published 2003).

The test system of data set [1] is chick chorioallantoic membrane (CAM). In words: Chick chorioallantoic membrane (CAM) assay, CAM area. Particulars: for LOAEL / LOAEL (Molar) / NOAEL (Molar) / LOAEL (mg/ml): day 5-6 CAMs, 24 hours; for minimal effective concentration: Gallus gallus, 24 h, read-out: lowest effective dose on CAM area; for effect on CAM area: 5e-11M. The method, then: The chick chorioallantoic membrane (CAM) assay is perhaps the most widely used assay for screening anti-angiogenic or growth inhibitory compounds (see, e.g. Ribatti et al., Int. J. Dev. Biol. 40:1189-1197 (1996)). Cell proliferation and angiogenesis were evaluated by measuring CAM area and BrdU labeling using the CAM assay as modified by Melkonian et al., J. Exp. Zool. (2001), in review. Fertilized chicken eggs were purchased from Hy-Line International (Lakeview, CA), then incubated at 37° C. at 85-90% relative humidity throughout the experiment. Experiments were done to evaluate cell proliferation, angiogenesis, and vascularization in CAMs between days 5 and 6 after fertilization. Albumin (2.5-3.0 cc) was removed on the fourth day after fertilization to drop the embryo away from the shell. Windows were then made in shells, and sealed with transparent tape to allow subsequent access to the CAM for experimental treatment. 200 μl of either EBSS-H or different concentrations of pure chemicals were added to the surface of each CAM at 10 AM on the fifth day after fertilization. A sham control group in which the window was opened and resealed was also included in each experiment. In all cases, the following five concentrations of test reagents were used, 5×10^−3 M, 5×10^−5 M, 5×10^−7M, 5×10^−9 M and 5×10^−11M. For 2-ethylpyridine and 3-ethylpyridine additional concentrations of 5×10^−12M, 5×10^−13M, 5×10^−14 M and 5×10^−15 M were used. For nicotine and nornicotine, concentrations of 5×10^−4 M, 5×10^−6 M, 5×10^−8 M and 5×10^−10 M were also used. Development was terminated at 10 AM on the sixth day after fertilization by fixing the embryo and the CAM with 3% glutaraldehyde in 0.1M cacodylate buffer (pH 7.4) for 2 hours at room temperature. A small volume of fixative was also injected under the CAM. The CAMs were later dissected from eggs, post-fixed in the same fixative for 24 hours at room temperature, then thoroughly rinsed in PBS.
At least 6 CAMs were used in each control and experimental group. Parameters which measure aspects of cell proliferation, angiogenesis, and vacularization were quantified for each CAM. These parameters include: (1) for cell proliferation—CAM area, BrdU labeling of nuclei; (2) for angiogenesis—blood vessel pattern, blood vessel area, blood vessel diameter, and blood vessel branching; (3) for vascularization—density of angiogenic clusters. The area of each CAM was measured by placing the CAMs in PBS in a Petri dish under a Wild-M5A dissecting microscope (Max ERB instrument Co., Burbank, CA), then measuring the longest and shortest length of each CAM with a ruler to the precision of 0.5 mm. The data were recorded into Excel spreadsheet. CAM area was calculated using the formula:
where A=longest length, B=longest width, π=3.14.
Means and standard deviations were then calculated for each control and treatment group. The treated group means were used to compare with control means to determine the effect of each chemical on CAM growth.
On the fifth day after fertilization, either EBSS-H or different concentrations of test chemicals were added to each CAM. A sham group in which windows were opened and resealed without adding any solution was also included to determine if the vehicle EBSS-H had any effect on CAM area. Development was terminated 24 hours later, and CAMs were measured as described in Materials and Methods.

Data set [2] concerns nuclei of day 5 CAMs. In words: BrdU labeling of CAMs (cell proliferation). In kind it is in vivo, chick. How it is done:
Eight hours after the initial EBSS-H or chemical treatment on day 5 after fertilization, […] BrdU (Sigma, St. Louis, Mo.) were added to each CAM surface. Another 55 minutes after the BrdU treatment, the development of the CAMs was terminated by transferring the embryos and CAMs into a −20° C. freezer for 2-3 minutes. Embryos and CAMs were then fixed at −20° C. in 70% ethanol containing 50 mM glycine buffer, pH 2.0 for 1.5 hours. CAMs were then dissected out of the eggs, washed in PBS and dehydrated in 30%, 50%, 75%, 90% and 100% ethanol series. Dehydrated CAM tissues were further processed in Hypercenter II Tissue Processing System (Shandon Inc., Pittsburgh, Pa.), then embedded in paraffin using Sakura Tissue-TE (Shandon Inc., Pittsburgh, Pa.). Paraffin Sections were cut using a S20 Spencer microtome (Labequip, American Optical Corp., Ontario, Canada), and were mounted on Superfrost/plus glass slides (Fisher Scientific, Tustin, CA). Sections were deparaffinized with 3 changes of Hemo-De for 15 minutes each, 2 changes of 100% ethanol for 5 minutes each, then rehydrated in PBS. […] Images were recorded using a Spot digital camera-SP401-115 (Diagnostic Instruments, Sterling Heights, MI) and processed and montaged using Adobe Photoshop (San Jose, Calif.). […]

Data set [3] relates to blood vessels of the chick chorioallantoic membrane (CAM). Description: CAM angiogenesis: blood vessel area, pattern formation, capillary plexus. The class given is in vivo. How it is done:
(2001), in review. […] The surface of each CAM was further dissected out of the CAM pocket in PBS. CAMs were then flattened with 18×18-1.5 Fisherbrand microscope cover slip (Fisher Scientific, Pittsburgh, Pa.) in Fisherbrand 60×15 mm standard sterile polystyrene petri dish (Fisher Scientific, Pittsburgh, Pa.). […] Pattern formation was evaluated blindly using video image montages projected on a computer monitor. Images were ranked on a scale of 0 to 3, with 0 being similar to control CAMs and 3 being most dissimilar from controls. The area occupied by major blood vessels in control and chemically treated CAMs was measured in digitalized images projected on a computer monitor using NIH image. Boxes (2.4 c 1.98 mm) were placed in each corner of each CAM image, which had been processed to visualize the major blood vessels. The percentage of pixels occupied by the blood vessels was quantified in each box and an average percentage was computed from the four boxes measured from each CAM. These values were used to compute means and standard deviations for each group. Blood vessel diameter and branching were measured in images projected on a computer monitor using NIH Image software. Density of angiogenic clusters was evaluated in toluidine blue stained histological sections that were digitalized and projected on a computer monitor.

Where “and” joins values, the source holds several entries; their conditions need not be identical. Identical values can stand only once. Entries after “also recorded” stand apart in the source; their conditions may differ.

Broadly, the LOAEL is the lowest dose or exposure tested at which an adverse effect was seen. `Cc1cccnc1C` [2,3-dimethylpyridine]: in data set [1] (CAM area), the “LOAEL” value was 0.00536 mg/mL, the “LOAEL (Molar)” value amounted to 50 µM and the “NOAEL (Molar)” value came to 500 nM. Further, the minimal effective concentration in data set [1] is 50 µM and 5.36 µg/mL.

With `Cc1cc(C)nc(C)c1` [2,4,6-trimethylpyridine], in data set [1] (CAM area), the “LOAEL” value is 0.0061 mg/mL, the “LOAEL (Molar)” value is 50 µM and the “NOAEL (Molar)” value amounted to 500 nM. For the same compound, the minimal effective concentration in data set [1] was 50 µM and 6.1 µg/mL.

As for `Cc1ccnc(C)c1` [2,4-dimethylpyridine], in data set [1] (CAM area), the “LOAEL” value turned out to be 0.00536 mg/mL, the “LOAEL (Molar)” value stood at 50 µM and the “NOAEL (Molar)” value is 500 nM. In addition, the minimal effective concentration in data set [1] is 50 µM and 5.36 µg/mL.

Turning to `CCc1ccccn1` [2-ethylpyridine], the “CAM size compared with control groups” value in data set [1] (5e-3M) is “significantly smaller”. In data set [1] (CAM area), the “lowest effective dose lower than that of the single pyridine ring” value worked out at 10 million, the “LOAEL” value was 5.36e-10 mg/mL, the “LOAEL (Molar)” value was 5e-06 µM and the “NOAEL (Molar)” value was determined as 0.0005 nM. The minimal effective concentration in data set [1] was 5e-06 µM and 5.4e-07 µg/mL. Besides, the “CAM growth / size compared with control” value in data set [1] (dose not stated) is listed as “significantly inhibited”. In addition, the “incorporation of BrdU into nuclei” value in data set [2] (5e-11, eight hours) is “significantly less incorporation of BrdU”. The “major blood vessel pattern formation” value in data set [3] (5e-3M) is on record as “disturbance in major blood vessel pattern formation”. Also, in data set [3] (all doses tested), the dendritic branching pattern result is “disrupted”. Besides, in data set [3] (in vivo), the “formation of the capillary plexus” value is “significantly inhibited; also recorded: failed to form”. In addition, the “dose at which blood vessel area was significantly decreased” value in data set [3] (vs EBSS control, exposed day 5, evaluated day 6) was 50 pM.

For `Cc1ccccn1` [2-methylpyridine], in data set [1] (CAM area), the “LOAEL (Molar)” value is 0.005 µM, the “LOAEL (mg/ml)” value amounted to 4.66e−7 mg/lml mg/ml and the “NOAEL (Molar)” value is 0.05 nM. In data set [1], the minimal effective concentration is 0.005 µM and 0.000466 µg/mL. Moreover, the “incorporation of BrdU into nuclei” value in data set [2] (5e-9, eight hours) is reported as “significantly less incorporation of BrdU”.

On to `Cc1cccnc1` [3-methylpyridine], for which, in data set [1] (CAM area), the “LOAEL (Molar)” value came out at 0.005 µM, the “LOAEL (mg/ml)” value amounted to 4.66e−7 mg/lml mg/ml and the “NOAEL (Molar)” value is 0.05 nM. Moreover, in data set [1], the minimal effective concentration is 0.005 µM and 0.000466 µg/mL.

For `c1cc(-c2ccncc2)ccn1` [4,4-bipyridine], in data set [1] (CAM area), the “LOAEL” value worked out at 0.0781 mg/mL, the “LOAEL (Molar)” value is 500 µM and the “NOAEL (Molar)” value was 50000 nM. Also, in data set [1], the minimal effective concentration is 500 µM and 78.1 µg/mL.

With `C=Cc1ccncc1` [4-ethenylpyridine], in data set [1] (CAM area), the “LOAEL” value amounted to 0.00526 mg/mL, the “LOAEL (Molar)” value came out at 50 µM and the “NOAEL (Molar)” value turned out to be 500 nM. For the same compound, the minimal effective concentration in data set [1] was 50 µM and 5.26 µg/mL.

Consider `c1ccncc1` [Pyridine, pyridine, reference compound], for which, in data set [1] (CAM area), the “LOAEL” value worked out at 0.00396 mg/mL, the “LOAEL (Molar)” value was found to be 50 µM and the “NOAEL (Molar)” value worked out at 500 nM. In data set [1], the minimal effective concentration is 50 µM and 3.96 µg/mL.

Take `Cn1cccc1-c1cccnc1` [b-nicotyrine, 3-(1-methylpyrrol-2-yl)pyridine]: in data set [1], the “effect on CAM area” value is “slight increase”; the minimal effective concentration is 0.5 µM and 0.079 µg/mL. In addition, in data set [1] (CAM area), the “LOAEL” value was determined as 7.9e-05 mg/mL, the “LOAEL (Molar)” value was found to be 0.5 µM and the “NOAEL (Molar)” value stood at 5 nM.

As for `CN1CCCC1c1cccnc1` (stereo not drawn) [nicotine, 1-methyl-2-(3-pyridyl)pyrrolidine], in data set [1], the “effect on CAM area” value is “significant stimulatory effect”; the minimal effective concentration was 500 µM and 81 µg/mL. Moreover, in data set [1] (CAM area), the “LOAEL” value was determined as 0.081 mg/mL, the “LOAEL (Molar)” value was determined as 500 µM and the “NOAEL (Molar)” value worked out at 50000 nM.

`c1cncc([C@@H]2CCCN2)c1` [nornicotine, 3-(1-pyrrolidin-2-yl)pyridine]: in data set [1], the “effect on CAM area” value was “significant stimulatory effect”; the minimal effective concentration was 50 µM and 7.4 µg/mL. Besides, in data set [1] (CAM area), the lowest-observed-adverse-effect level (LOAEL) turned out to be 0.0074 mg/mL, the “LOAEL (Molar)” value was found to be 50 µM and the “NOAEL (Molar)” value was found to be 5000 nM.
